# Test system: HIV-IIIb
# Experiment: Test A: Antiviral Assay in MT4 Cells
# Assay type: cell-based
# Conditions: Human immunodeficiency virus 1, IIIB, MT4, 120 h
# Experimental: The antiviral properties of a compound of the invention may be determined using Test A described below.
# Test A: Antiviral Assay in MT4 Cells
# For the antiviral assay utilizing MT-4 cells, 0.4 μL of […] test concentration of 3-fold serially diluted compound in DMSO was added to 40 μL of cell growth medium (RPMI 1640, 10% FBS, 1% penicilline/Streptomycine, 1% L-Glutamine, 1% HEPES) in each well of 384-well assay plates (10 concentrations) in quadruplicate.
# One mL aliquots of 2×10e6 MT-4 cells were pre-infected for 1 and 3 hours respectively, @ 37° C. with 25 uL (MT4) or of either cell growth medium (mock-infected) or a fresh 1:250 dilution of an HIV-IIIb concentrated ABI stock (0.004m.o.i. for MT4 cells). Infected and uninfected cells were diluted in cell growth medium and 35 uL of 2000 (for MT4) cells was added to each well of the assay plates.
# Assay plates were then incubated in a 37° C. incubator. After 5 days of incubation, […] of 2× concentrated CellTiter-Glo™ Reagent (catalog #G7573, Promega Biosciences, Inc., Madison, Wis.) was added to each well of the assay plate. Cell lysis was carried out by incubating at room temperature for 2-3 min and then chemiluminescence was read using the Envision reader (PerkinElmer). […]
row,SMILES,EC50
1,"Cc1cc2nc(-c3nc(-c4ccc5c(cnn5C)c4)cs3)sc2c(-c2ccc(Cl)cc2)c1[C@H](OC(C)(C)C)C(=O)O [Compound 310, (S)-2-tert-butoxy-2-(7-(4-chlorophenyl)-5-methyl-2-(4-(1-methyl-1H-indazol-5-yl)thiazol-2-yl)benzo[d]thiazol-6-yl)acetic acid]",26 nM

# Same assay, conditions: Human immunodeficiency virus 1, IIIB, MT4, 120 h, Table 1; MT-4 cells infected with HIV-IIIb, 5 days of incubation, CellTiter-Glo; read-out: EC50
row,SMILES,EC50
1,Cc1cc2nc(-c3cccc(-c4cnn(C(C)C)c4)c3)sc2c(-c2ccc(Cl)cc2)c1[C@H](OC(C)(C)C)C(=O)O [Compound 151],32 nM
2,Cc1cc2nc(-c3cccc(-c4ccc5c(cnn5C)c4)c3)sc2c(-c2ccc3c(c2)C(=O)CCO3)c1[C@H](OC(C)(C)C)C(=O)O [Compound 169],33 nM

# Other lines, results leading:
row,EC50,SMILES
1,5 nM,Cc1cc2nc(-c3ccnc(-c4ccc(N5CCN(C)CC5)nc4)c3)sc2c(-c2ccc(Cl)cc2)c1[C@H](OC(C)(C)C)C(=O)O [Compound 140]
2,2610 nM,Cc1cc2nc(-c3cccc(-c4cnc(O)nc4)c3)sc2c(-c2ccc(Cl)cc2)c1[C@H](OC(C)(C)C)C(=O)O [Compound 144]
3,21 nM,Cc1cc2nc(-c3cccc(-c4cnc5cnn(C)c5c4)c3)sc2c(-c2ccc(Cl)cc2)c1[C@H](OC(C)(C)C)C(=O)O [Compound 137]
4,17 nM,Cc1cc2nc(-c3ccnc(-c4cnc(N5CCOCC5)nc4)c3)sc2c(-c2ccc(Cl)cc2)c1[C@H](OC(C)(C)C)C(=O)O [Compound 135]

# Same assay, conditions: Human immunodeficiency virus 1, IIIB, MT4, 120 h, Table 2; MT-4 cells infected with HIV-IIIb, 5 days of incubation, CellTiter-Glo; read-out: EC50
row,SMILES,EC50
1,"Cc1cc2nc(-c3ccnc(-c4ccc5c(F)nn(C)c5c4)c3)sc2c(-c2ccc(Cl)cc2)c1[C@H](OC(C)(C)C)C(=O)O [Compound 225, (S)-2-tert-butoxy-2-(7-(4-chlorophenyl)-2-(2-(3-fluoro-1-methyl-1H-indazol-6-yl)pyridin-4-yl)-5-methylbenzo[d]thiazol-6-yl)acetic acid]",96 nM
2,Cc1cc2nc(-c3cnc4c(c3)c(N3CCN(C)CC3)cn4C)sc2c(-c2ccc(Cl)cc2)c1[C@H](OC(C)(C)C)C(=O)O [Compound 377],32 nM
3,"Cc1cc2nc(-c3ccnc(N4CCN(C(=O)N(C)C)CC4)n3)sc2c(-c2ccc(Cl)cc2)c1[C@H](OC(C)(C)C)C(=O)O [Compound 472, (S)-2-tert-butoxy-2-(7-(4-chlorophenyl)-2-(2-(4-(dimethylcarbamoyl)piperazin-1-yl)pyrimidin-4-yl)-5-methylbenzo[d]thiazol-6-yl)acetic acid]",4 nM
4,"Cc1cc2nc(-c3ccnc(-c4cc5c(C)nn(C)c5cn4)c3)sc2c(-c2ccc(Cl)cc2)c1[C@H](OC(C)(C)C)C(=O)O [Compound 234, (S)-2-tert-butoxy-2-(7-(4-chlorophenyl)-2-(2-(1,3-dimethyl-1H-pyrazolo[3,4-c]pyridin-5-yl)pyridin-4-yl)-5-methylbenzo[d]thiazol-6-yl)acetic acid]",13 nM
5,Cc1cc2nc(-c3ccnc(N4CCN(C)C[C@@H]4C)n3)sc2c(-c2ccc(Cl)cc2)c1[C@H](OC(C)(C)C)C(=O)O [Compound 337],4 nM
6,Cc1cc2nc(N3CCc4nn(C)c(C)c4C3)sc2c(-c2ccc(Cl)cc2)c1[C@H](OC(C)(C)C)C(=O)O [Compound 440],11 nM
7,"Cc1cc2nc(-c3cccc(-c4cnc(=O)n(C)c4)c3)sc2c(-c2ccc(Cl)cc2)c1[C@H](OC(C)(C)C)C(=O)O [Compound 280, (S)-2-tert-butoxy-2-(7-(4-chlorophenyl)-5-methyl-2-(3-(1-methyl-2-oxo-1,2-dihydropyrimidin-5-yl)phenyl)benzo[d]thiazol-6-yl)acetic acid]",248 nM
8,"Cc1cc2nc(-c3cccc(-n4cc(C)c(=O)[nH]c4=O)c3)sc2c(-c2ccc(Cl)cc2)c1[C@H](OC(C)(C)C)C(=O)O [Compound 228, (S)-2-tert-butoxy-2-(7-(4-chlorophenyl)-5-methyl-2-(3-(5-methyl-2,4-dioxo-3,4-dihydropyrimidin-1(2H)-yl)phenyl)benzo[d]thiazol-6-yl)acetic acid]",910 nM
9,"Cc1cc2nc(-c3cccc(N4CCN(C(C)C)CC4)c3)sc2c(-c2ccc(Cl)cc2)c1[C@H](OC(C)(C)C)C(=O)O [Compound 483, (S)-2-tert-butoxy-2-(7-(4-chlorophenyl)-2-(3-(4-isopropylpiperazin-1-yl)phenyl)-5-methylbenzo[d]thiazol-6-yl)acetic acid]",37 nM
10,"Cc1cc2nc(-c3ccnc(-c4cc(C)c5c(cnn5C)c4)c3)sc2c(-c2ccc(Cl)cc2)c1[C@H](OC(C)(C)C)C(=O)O [Compound 215, (S)-2-tert-butoxy-2-(7-(4-chlorophenyl)-2-(2-(1,7-dimethyl-1H-indazol-5-yl)pyridin-4-yl)-5-methylbenzo[d]thiazol-6-yl)acetic acid]",27 nM
11,"Cc1cc2nc(-c3cc(-c4ccc5c(cnn5C)c4)ncc3C(F)F)sc2c(-c2ccc(Cl)cc2)c1[C@H](OC(C)(C)C)C(=O)O [Compound 290, (S)-2-(tert-butoxy)-2-(7-(4-chlorophenyl)-2-(5-(difluoromethyl)-2-(1-methyl-1H-indazol-5-yl)pyridin-4-yl)-5-methylbenzo[d]thiazol-6-yl)acetic acid]",87 nM
12,Cc1cc2nc(-c3nc(N4CCN(C)CC4)cs3)sc2c(-c2ccc(Cl)cc2)c1[C@H](OC(C)(C)C)C(=O)O [Compound 247],10 nM
13,Cc1cc2nc(-c3ccc4c(c3)nc(C)n4C(C)C)sc2c(-c2ccc(Cl)cc2)c1[C@H](OC(C)(C)C)C(=O)O [Compound 410],9 nM
14,Cc1cc2nc(-c3ccc4c(n3)c(C)nn4C)sc2c(-c2ccc(Cl)cc2)c1[C@H](OC(C)(C)C)C(=O)O [Compound 358],241 nM
15,"Cc1cc2nc(-c3cc(-c4ccc5c(cnn5C)c4)ncc3F)sc2c(-c2ccc(Cl)cc2)c1[C@H](OC(C)(C)C)C(=O)O [Compound 291, (S)-2-(tert-butoxy)-2-(7-(4-chlorophenyl)-2-(5-fluoro-2-(1-methyl-1H-indazol-5-yl)pyridin-4-yl)-5-methylbenzo[d]thiazol-6-yl)acetic acid]",76 nM
16,"Cc1cc2nc(-c3ccnc(-n4ccc5cccnc5c4=O)c3)sc2c(-c2ccc(Cl)cc2)c1[C@H](OC(C)(C)C)C(=O)O [Compound 187, (S)-2-tert-butoxy-2-(7-(4-chlorophenyl)-5-methyl-2-(2-(8-oxo-1,7-naphthyridin-7(8H)-yl)pyridin-4-yl)benzo[d]thiazol-6-yl)acetic acid]",25 nM
17,"Cc1cc2nc(N3CCN(C(C)C)C(c4ccc5c(cnn5C)c4)C3)sc2c(-c2ccc(Cl)cc2)c1[C@H](OC(C)(C)C)C(=O)O (stereo partly drawn) [Compound 279, (2S)-2-tert-butoxy-2-(7-(4-chlorophenyl)-2-(4-isopropyl-3-(1-methyl-1H-indazol-5-yl)piperazin-1-yl)-5-methylbenzo[d]thiazol-6-yl)acetic acid]",16 nM

# More lines, now with the values ahead:
row,EC50,SMILES
1,13 nM,Cc1cc2c(cnn2C)cc1-c1cc(-c2nc3cc(C)c([C@H](OC(C)(C)C)C(=O)O)c(-c4ccc(Cl)cc4)c3s2)ccn1 [Compound 419]
2,10 nM,Cc1cc2nc(-c3ccnc(-c4cnc5c(c4)OCCN5C)c3)sc2c(-c2ccc(Cl)cc2)c1[C@H](OC(C)(C)C)C(=O)O [Compound 396]
3,36 nM,Cc1cc2nc(-c3ccnc(-c4cccc5c4CCN5C)c3)sc2c(-c2ccc(Cl)cc2)c1[C@H](OC(C)(C)C)C(=O)O [Compound 398]
4,42 nM,Cc1cc2nc(-c3ccnc(-n4ccc5ccccc5c4=O)c3)sc2c(-c2ccc(Cl)cc2)c1[C@H](OC(C)(C)C)C(=O)O [Compound 462]
5,143 nM,Cc1cnc2n(C)cc(-c3cc(-c4nc5cc(C)c([C@H](OC(C)(C)C)C(=O)O)c(-c6ccc(Cl)cc6)c5s4)ccn3)cc1-2 [Compound 385]
6,28 nM,Cc1cc2nc(-c3ccnc(-c4ccc5[nH]c(=O)ccc5c4)c3)sc2c(-c2ccc(Cl)cc2)c1[C@H](OC(C)(C)C)C(=O)O [Compound 459]
7,23 nM,Cc1cc2nc(-c3ccnc(-c4ccc5c(c4)C(=O)N(C)CCO5)c3)sc2c(-c2ccc(Cl)cc2)c1[C@H](OC(C)(C)C)C(=O)O [Compound 401]
8,14 nM,COc1ccc(-c2cc(-c3nc4cc(C)c([C@H](OC(C)(C)C)C(=O)O)c(-c5ccc(Cl)cc5)c4s3)ccn2)cc1OC [Compound 350]
9,25 nM,Cc1cc2nn(C)cc2cc1-c1cc(-c2nc3cc(C)c([C@H](OC(C)(C)C)C(=O)O)c(-c4ccc(Cl)cc4)c3s2)ccn1 [Compound 416]
10,37 nM,Cc1cc2nc(-c3ccnc(-c4cnc5c(c4)ncn5C)c3)sc2c(-c2ccc(Cl)cc2)c1[C@H](OC(C)(C)C)C(=O)O [Compound 405]
11,14 nM,Cc1cc2[nH]ncc2cc1-c1cc(-c2nc3cc(C)c([C@H](OC(C)(C)C)C(=O)O)c(-c4ccc(Cl)cc4)c3s2)ccn1 [Compound 420]
12,15 nM,Cc1cc2cc(-c3nc4cc(C)c([C@H](OC(C)(C)C)C(=O)O)c(-c5ccc(Cl)cc5)c4s3)cnc2[nH]1 [Compound 379]

# Same assay, conditions: Table 1; MT-4 cells infected with HIV-IIIb, 5 days of incubation, CellTiter-Glo; read-out: EC50
row,SMILES,EC50
1,"Cc1cc2nc(N3CCCC3)sc2c(-c2ccc3c4c(ccnc24)CCO3)c1[C@H](OC(C)(C)C)C(=O)O (atropisomer, axis not shown) [Compound 51, (S)-2-tert-butoxy-2-((R)-7-(2,3-dihydropyrano[4,3,2-de]quinolin-7-yl)-5-methyl-2-(pyrrolidin-1-yl)benzo[d]thiazol-6-yl)acetic acid]",5250 nM

# Source: patent US8987250B2 (Gilead Sciences, Inc., priority 2012, dated 2015)
